Holding throughout (assay): DTP human tumour cell line panel, 48 h
In assay [1] the test system is DLD-1.
Assay [2] concerns DMS-114.
The test system of assay [3] is HOP-18.
The subject of assay [4] is LXFL 529.
Assay [5] deals with SNB-78.
The test system of assay [6] is XF498.
Assay [7] concerns Hs-578T.
The subject of assay [8] is MDA-MB-231.
In assay [9] the test system is RXF 631.

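Each compound was tested at five concentrations against cells in 96-well plates for 48 hours. GI50 = concentration required for 50% inhibition of growth.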 The source made the active and inactive calls. Cut-off read from the data, not from the text of the source: active = GI50 up to about 1.1 µM and inactive = higher.

Turning to `Clc1cc2nsnc2c(Cl)n1`, the GI50 (in general, the concentration at which growth is held to half of that of the control) is 20.3 µM (inactive) in assay [1]; 15.6 µM (inactive) in [2]; 17.5 µM (inactive) in assay [3]; 14.4 µM (inactive) in [4]; 56.4 µM (inactive) in assay [5]; 17.3 µM (inactive) in assay [6].
Consider `CC1=C(C(=O)NCc2ccccc2)C(c2ccco2)C(C(=O)NCc2ccccc2)=C(C)N1`, for which the GI50 in assay [1] was > 100 µM (inactive); in [2], 48.5 µM (inactive); in [3], > 100 µM (inactive); in assay [4], 42.6 µM (inactive); in [5], > 100 µM (inactive); in assay [6] it was > 100 µM (inactive).
Take `CC1CC(C)(O)C2C3(C)CCCC2(COC3=O)C12CCC1(CCOC1=O)O2` (stereo not given): the GI50 in assay [1] is > 250 µM (inactive); in assay [2], > 250 µM (inactive); in assay [3], > 250 µM (inactive); in assay [5] it was > 250 µM (inactive); in assay [6] it was 38.3 µM (inactive).
For `O=C1c2ccccc2C(O)(C(=O)O)C1(O)CC=C(Cl)Cl` (stereo not given), the GI50 in [1], in assay [2], in assay [3], in [5] and in assay [6] was > 125 µM (inactive) each time.
`C/C=C(\C)C(=O)OC1C2C(C)=CC(=O)C(O)C2(C)C2C3(O)OCC24C1OC(=O)C(OC(C)=O)C4C(C)C3O` (stereo not given): the concentration for 50% growth inhibition (GI50) was 0.0375 µM (active) in assay [1]; 0.0375 µM (active) in assay [2]; 0.0811 µM (active) in assay [3]; 0.0483 µM (active) in [5]; 0.0396 µM (active) in assay [6].
As for `CS(=O)(=O)OCCCNCCCOS(C)(=O)=O`, the GI50 in assay [1] was 2810 µM (inactive); in [2], 849 µM (inactive); in assay [3] it was 1420 µM (inactive); in [7], 2090 µM (inactive); in assay [8], 1860 µM (inactive); in [5], 2100 µM (inactive). For the same compound, the GI50 in assay [6] was 938 µM (inactive).
Regarding `CC1(C)N=C(N)N=C(N)N1c1ccc(CCc2ccccc2)cc1`, the GI50 in assay [1] was 15.7 µM (inactive); in assay [2], 0.647 µM (active); in [3] it was 45.7 µM (inactive); in assay [5], 13.6 µM (inactive); in assay [6], < 0.01 µM (active).
Take `COc1cc(-c2cc(O)c3cc4c(cc3n2)OCO4)cc(OC)c1OC`: the GI50 was > 100 µM (inactive) in assay [1]; 72.8 µM (inactive) in [3]; > 100 µM (inactive) in [4]; > 100 µM (inactive) in assay [5]; 29.8 µM (inactive) in assay [6].
`O=C(CC1Sc2ccccc2NC1=O)Nc1ccc(Cl)cc1` (stereo not given): the GI50 in assay [1] was > 100 µM (inactive); in [2], 48.4 µM (inactive); in assay [3], 20 µM (inactive); in assay [4] it was > 100 µM (inactive); in assay [9] it was 83.6 µM (inactive); in assay [5], > 100 µM (inactive). Further, the GI50 in assay [6] was > 100 µM (inactive).
Take `COC(=O)c1sc(=O)n(-c2ccccc2)c1SCc1ccccc1`: the GI50 in assay [1], in assay [3], in assay [4], in assay [9] and in assay [6] was > 100 µM (inactive) each time.
For `Cc1c2ccncc2c(C)c2c1[nH]c1ccccc12` [ELLIPTECINE], the GI50 is 0.509 µM (active) in [1]; 0.94 µM (active) in assay [2]; 1.49 µM (inactive) in assay [3]; 1.48 µM (inactive) in [5]; 1.81 µM (inactive) in assay [6].
`C=CC1(C)CCC2=C(CCC3C(C)(C(=O)OC)CCCC23C)C1=O` (stereo not given): the GI50 in assay [1] was 18.5 µM (inactive); in assay [2], 15.3 µM (inactive); in assay [4] it was 18.5 µM (inactive); in [9], 16.2 µM (inactive); in [5] it was 18.8 µM (inactive).
Turning to `CC(C)c1oc(=O)cc2c1C(O)C1OC(=O)C3(C)C(O)C4OC4C2(C)C13` (stereo not given) [NAGILACTONE], the GI50 in assay [1] was 1.23 µM (inactive); in assay [2], 1.13 µM (inactive); in assay [3], 3.48 µM (inactive); in assay [5], 6.25 µM (inactive); in assay [6] it was 0.703 µM (active).
For `OCCN1CCN(CCO)Cc2ccccc2OCCOc2ccccc2C1`, the GI50 in assay [1] was > 100 µM (inactive); in [2], > 100 µM (inactive); in assay [4] it was 64.4 µM (inactive); in [9] it was > 100 µM (inactive); in assay [5], > 100 µM (inactive).
`COc1ccc(N(CC(=O)O)S(=O)(=O)c2ccccc2)cc1`: the GI50 in [1], in [3], in assay [4], in [9] and in [6] was > 100 µM (inactive) each time.
In the case of `CC(C)CCCC(C)[C@H]1CCC(C2C[C@@H](O)[C@@H]3CC(O)[C@@H](O)C[C@]3(CO)C2=O)[C@]1(C)CCO` (stereo not given in full), the GI50 in [1] was 31.7 µM (inactive); in [2], 20.6 µM (inactive); in [3], 23.7 µM (inactive); in [5], 32.7 µM (inactive); in assay [6] it was > 42.9 µM (inactive).
For `CCn1c(=O)c(C(=O)O)c(Cl)c2cc3c(cc21)OCO3`, the GI50 in assay [1], in assay [3], in assay [5] and in assay [6] was > 100 µM (inactive) throughout.

The record behind these values is ChEMBL document CHEMBL1201862, “PubChem BioAssay data set” (2004).
